Measurements from US10947188B2, “Small molecule ferroptosis inducers” (THE TRUSTEES OF COLUMBIA UNIVERSITY IN THE CITY OF NEW YORK, priority 2016, dated 2021).
Values after ≈ are worked out from the molar mass of the structure shown.

Columns and labels:
[1] = test system: HT-1080 cells; test: Lethality of commercially available CIL41/70 structural analogs; format: cell-based; conditions: Homo sapiens, tested once in technical triplicates
Method: 1,000 cells per 36 μl were seeded in each well in 384-well plates. Lethal compounds were dissolved, and a twofold, 12-point dilution series was prepared in DMSO. Compound solutions were further diluted with media at 1:25, and 4 μl per well of the diluted solutions was added to cell cultures immediately after cells were seeded. […] When other cell-death-modulating compounds (100 nM sodium selenite, 1 μM cerivastatin, 100 μg/mL mevalonic acid) were used in cotreatments, they were supplemented to cell culture for 24 h before lethal compounds were added to cell culture, after which cells were further incubated for 24 h at 37° C. under 5% CO2. On the day of the viability measurement, we added 10 μl per well of 50% Alamar Blue diluted in media (Life Technologies) and further incubated the cells at 37° C. for 6 h. Fluorescence intensity (excitation/emission: 530/590) was measured with a Victor 3 plate reader (PerkinElmer), and the normalized viability was calculated as VL=(IL−I0)/(IV−I0), where VL, I0, IV, and IL are the normalized viability and the raw fluorescence intensities from the wells containing media, cells treated with a vehicle (negative control), and cells with the lethal compound (L), respectively. When the effect of a chemical modulator (M) on L was calculated, we instead used the equation VL|M=(IM,L−I0)/(IM,V−I0), where VL|M, IM,L and IM,V are the normalized viability, and fluorescence intensity from cells treated with […], respectively. The viability was typically measured in biological triplicate unless otherwise specified. A representative dose-response curve, the mean and standard error of normalized viability from one replicate were plotted. HT-1080 viability after modulator treatments corresponding to FIG. 3C and FIGS. 5E-5F is available in FIGS. 19A-19C.
Their lethality was tested once in HT-1080 cells in technical triplicates.

[2] = test system: BJeLR; test: Modulatory profiling: Alamar Blue viability, lethal compound cotreated with death modulator (EC50, AUC); format: cell-based, human; parameters: AUC, modulator BJ.Gd3+ / AUC, modulator BJ.LNAME / AUC, modulator BJ.Lmin / AUC, modulator BJ.3MA / AUC, modulator BJ.ALLN / AUC, modulator BJ.Boc D / AUC, modulator BJ.CHX / AUC, modulator BJ.Co2+ / AUC, modulator BJ.Nec-1 / AUC, modulator BJ.Pepstatin / AUC, modulator BJ.TLCK / AUC, modulator BJ.atoc / AUC, modulator BJ.trolox / AUC, modulator BJ.zVAD: unit not given beside the values; conditions: BJeLR cells, modulatory profile value (AUC)
[3] = test system: HT-1080; test: as above; format: cell-based; parameters: AUC, modulator HT.3MA / AUC, modulator HT.ALLN / AUC HT.ATA / AUC HT.ActD / AUC HT.BHA / AUC HT.BHT / AUC HT.BocD / AUC HT.CHX / AUC HT.Co2+ / AUC HT.DPQ / AUC HT.EGTA / AUC HT.Lmim / AUC HT.NAD+ / AUC HT.Nec-1 / AUC HT.SP600125 / AUC HT.TLCK / AUC HT.U0126: unit not given beside the values

N/C(Cc1ccc(Cl)cc1Cl)=N\OC(=O)/C=C/c1ccccc1 [AS2]
EC50 [1]: 12.3 µg/mL (≈ 35.1 µM)

CC(=O)O/N=C(\N)COc1ccc(-c2nnco2)cc1 [MB10]
EC50 [1]: > 20 µg/mL

Cc1ccc(OC/C(N)=N/OC(=O)CCn2cc(C(F)(F)F)ccc2=O)cc1 [MB17]
EC50 [1]: > 20 µg/mL

CC(C)(C)c1ccc(OCC(=O)O/N=C(\N)Cc2ccc([N+](=O)[O-])cc2)cc1 [CB7]
EC50 [1]: > 20 µg/mL

CC(Cl)(Cl)C(=O)O/N=C1\CCCCCN1 [EN4]
EC50 [1]: > 20 µg/mL

COc1ccc(C/C(N)=N/OC(=O)Cc2ccc(OC)c(OC)c2)cc1 [CB60]
EC50 [1]: > 20 µg/mL

COc1ccc(CC(=O)O/N=C(/N)Cn2nc(C)c(Br)c2C)cc1 [ZE7]
EC50 [1]: > 20 µg/mL

COc1ccc(CC(=O)C/N=C(\N)Cc2cccc3ccccc23)cc1 [CB86]
EC50 [1]: > 20 µg/mL

Cc1ccc(CC(=O)O/N=C(\N)Cc2cccc3ccccc23)cc1 [CB132]
EC50 [1]: > 20 µg/mL

N/C(Cc1cccc2ccccc12)=N\OC(=O)CC1CCCCC1 [CB85]
EC50 [1]: > 20 µg/mL

N/C(Cc1cccc2ccccc12)=N\OC(=O)CCc1ccccc1 [VM4]
EC50 [1]: > 20 µg/mL

N/C(COc1cccc(Cl)c1)=N\OC(=O)CCn1cc(C(F)(F)F)ccc1=O [MB16]
EC50 [1]: > 20 µg/mL

CC(C)(C)CC(=O)O/N=C(\N)C1(c2ccc(Cl)cc2Cl)CC1 [MB9]
EC50 [1]: > 20 µg/mL

Cc1cccc(OCC(=O)O/N=C(\N)Cc2ccc(Cl)c(Cl)c2)c1C [CB112]
EC50 [1]: > 20 µg/mL

CCc1ccc(OCC(=O)O/N=C(\N)Cc2ccc([N+](=O)[O-])cc2)c(Br)c1 [CB129]
EC50 [1]: > 20 µg/mL

COc1ccccc1C/C(N)=N/OC(=O)COc1ccc(C)cc1Br [CB22]
EC50 [1]: > 20 µg/mL

N/C(Cc1ccc(Cl)c(Cl)c1)=N\OC(=O)COc1ccccc1 [CB48]
EC50 [1]: > 20 µg/mL

N/C(Cc1cccs1)=N\OC(=O)COc1ccc(Br)cc1 [CB30]
EC50 [1]: > 20 µg/mL

COc1ccc(C/C(N)=N/OC(=O)Cc2ccc(Cl)cc2)cc1 [CB11]
EC50 [1]: > 20 µg/mL

COc1ccccc1C/C(N)=N/OC(=O)COc1ccc(C(C)(C)C)cc1 [CB5]
EC50 [1]: > 20 µg/mL

N/C(Cc1ccc(Cl)cc1)=N\OC(=O)Cc1ccccc1 [ZE16]
EC50 [1]: > 20 µg/mL

Cc1ccc(CC(=O)O/N=C(\N)Cc2ccc([N+](=O)[O-])cc2)cc1 [CB139]
EC50 [1]: > 20 µg/mL

COc1ccc(C/C(N)=N/OC(=O)COc2cccc3ccccc23)cc1 [CB10]
EC50 [1]: > 20 µg/mL

N/C(Cc1cccc2ccccc12)=N\OC(=O)CCC1CCCCC1 [CB105]
EC50 [1]: > 20 µg/mL

N/C(Cc1ccc([N+](=O)[O-])cc1)=N\OC(=O)CCCOc1ccccc1 [CB135]
EC50 [1]: > 20 µg/mL

Cc1[nH]c2c(ccc3ccccc32)c1C1C(CCN)C1(C)C (stereo not shown) [CIL74]
AUC, modulator BJ.3MA ([2]; lethal compound cotreated with modulator 3MA): 0.03615 | AUC, modulator BJ.ALLN ([2]; lethal compound cotreated with modulator ALLN): −0.02536 | AUC, modulator BJ.Boc D ([2]; lethal compound cotreated with modulator Boc D): 0.04324 | AUC, modulator BJ.CHX ([2]; lethal compound cotreated with modulator CHX): 0.01466 | AUC, modulator BJ.Co2+ ([2]; lethal compound cotreated with modulator Co2+): 0.2135 | AUC, modulator BJ.DPQ ([2]; lethal compound cotreated with modulator DPQ): −0.02906 | AUC, modulator BJ.Gd3+ ([2]; lethal compound cotreated with modulator Gd3+): 0.02963 | AUC, modulator BJ.LNAME ([2]; lethal compound cotreated with modulator LNAME): 0.001619 | AUC, modulator BJ.Lmin/NAD+ ([2]; lethal compound cotreated with modulator Lmin/NAD+): 0.07154 | AUC, modulator BJ.Lmin ([2]; lethal compound cotreated with modulator Lmin): 0.007766 | AUC, modulator BJ.NAD+ ([2]; lethal compound cotreated with modulator NAD+): −0.05906 | AUC, modulator BJ.NMMA ([2]; lethal compound cotreated with modulator NMMA): 0.01059 | AUC, modulator BJ.Nec-1 ([2]; lethal compound cotreated with modulator Nec-1): −0.02489 | AUC, modulator BJ.Pepstatin ([2]; lethal compound cotreated with modulator Pepstatin): 0.08294 | AUC, modulator BJ.TLCK ([2]; lethal compound cotreated with modulator TLCK): −0.02942 | AUC HT.ATA ([3]; HT-1080, modulator ATA): 0.01362 | AUC HT.ActD ([3]; HT-1080, modulator ActD): 0.02636 | AUC HT.BHA ([3]; HT-1080, modulator BHA): −0.08659 | AUC HT.BHT ([3]; HT-1080, modulator BHT): −0.04572 | AUC HT.BocD ([3]; HT-1080, modulator BocD): 0.01242 | AUC HT.CHX ([3]; HT-1080, modulator CHX): 0.02524 | AUC HT.Co2+ ([3]; HT-1080, modulator Co2+): 0.03244 | AUC HT.CspA ([3]; HT-1080, modulator CspA): −0.004622 | AUC HT.DPQ ([3]; HT-1080, modulator DPQ): 0.04847 | AUC HT.EGTA ([3]; HT-1080, modulator EGTA): −0.02674 | AUC HT.Gd3+ ([3]; HT-1080, modulator Gd3+): −0.008213 | AUC HT.LNAME ([3]; HT-1080, modulator LNAME): 0.01925 | AUC HT.Lmim ([3]; HT-1080, modulator Lmim): 0.02034 | AUC HT.NAD+ ([3]; HT-1080, modulator NAD+): 0.07664 | AUC HT.NMMA ([3]; HT-1080, modulator NMMA): 9.3282E−05 | HT.atoc (AUC) ([3]; HT-1080, modulator atoc): 0.07412 | HT.bCarotene (AUC) ([3]; HT-1080, modulator bCarotene): −0.02032 | HT.deferox (AUC) ([3]; HT-1080, modulator deferox): −0.008945 | HT.digoxin (AUC) ([3]; HT-1080, modulator digoxin): −0.02586 | HT.trolox (AUC) ([3]; HT-1080, modulator trolox): −0.0236 | HT.zVAD (AUC) ([3]; HT-1080, modulator zVAD): 0.01022
